Measured values published in patent publication US7378387B2, “Method of suppressing immune response by reducing intracellular content of glutathione in macrophages and monocytes” (Ajinomoto Co., Inc., priority 1997, dated 2008).

Key:
[1] = tested on: peritoneal exudate cells (macrophages); experiment: Induction of oxidative and reductive macrophages, monochlorobimane/ACAS (Example 1); format: in vivo; details: LPS 20 μg or lentinan 100 μg three times every two days into the abdominal cavity of a mouse
Method: These were clarified by adhering peritoneal exudate cells to the plastic surface, then reacting the same with 10 μM of monochlorobimane at 37° C. for 30 minutes and conducting analysis with Adherent Cell Analyzing System (ACAS). The increase in the amounts of oxidative macrophages can easily be measured visually from the fact that almost no reaction product is observed, that is, gray or blue image is obtained, and the increase in the amounts of reductive macrophages from the fact that the red or yellow image is obtained, respectively.

[2] = tested on: IL-12; experiment: IL-12 production by MΦ induced by intraperitoneal injection of substances (Example 7); format: in vivo, mouse
Method: The amount of IL-12 was determined through bioassay using cells of human T cell strain 2D6 (J. Leukocyte Biology, vol. 61, p. 346, 1997).
2D6 cells which had been incubated in an RPMI 1640 medium containing 500 pg/ml of recombinant human IL-12, 50 μM of 2-mercaptoethanol and 10% FCS (fetal calf serum) were moved to a tube, and centrifugally washed three times with the above-mentioned medium without IL-12 and cell density was adjusted to 1×10^5/ml. The cell suspension was added in an amount of 100 μl each to a 96-well flat bottom plate containing a sample serially diluted in advance with an RPMI 1640 medium containing 50 μM of 2-mercaptoethanol and 10% FCS in an amount of 100 μl each. Subsequently, the mixture was charged into a 5% […] incubator of 37° C., and incubated for 48 hours. For final 6 hours, ^3H-TdR was pulsed (a substance adjusted to 370 kBq/ml in an RPMI 1640 medium containing 50 μM of 2-mercaptoethanol and 10% FCS was added in an amount of 50 μl each). The cells a harvested, and the radioactivity was measured using a β counter (Matrix 96, supplied by Packard).
It was examined whether there is a difference in the IL-12 production between LNT-induced MΦ and LPS-induced MΦ. […] Next, the same analysis was conducted using MΦ induced by intraperitoneally injecting substances for changing the GSH content in cells.

[3] = tested on: adjuvant-induced arthritis; experiment: Adjuvant-induced arthritis (AA) in rats, joint swelling (Examples 18 and 19); format: in vivo, Lewis rats
Method: Adjuvant-induced arthritis was triggered in Lewis rats in a conventional manner; and the effects of chemical agents were examined in the animals. Adjuvant-induced arthritis is well known as an experimental arthritis inducible in rats [Taurog et al., Meth. Enzymol. 162, 339-355 (1988)]. […] An adjuvant is administered at 1 mg/0.1 ml per rate at a site of caudal root. The edema reaches its peak about 2 to 3 weeks after the administration of the adjuvant. The edema is triggered by inflammatory infiltration of monocytes. Swollen joints are measured with a micrometer every day; comparing the diameters of the joints prior to and after adjuvant administration and after initiation of the treatment with chemical agents with the diameters of the joints in the control group, the effects of the chemical agents were expressed as the ratio in % of joint swelling in the experimental groups to joint swelling in the control group. The effects were determined on day 15 after adjuvant administration. The chemical agents were given, starting the day next to the day of adjuvant administration, and every 3 days thereafter.
A single dose is 1 mg/kg for (NAC)2 and (NAC-OMe)2; 100 mg/kg for NAC; and 0.1 mg/kg for lentinan.
Adjuvant-induced arthritis was induced in Lewis rats in a conventional manner. In the same manner as in Example 11, the effects of chemical agents were examined in these rats. The conditions were the same as described above.

[4] = tested on: spontaneous onset of insulin-dependent diabetes mellitus; experiment: Onset of diabetes mellitus in NOD mice dosed at age 3 to 6 weeks (Example 23); format: in vivo; details: intraperitoneal, three times per week, nine times
Method: NOD mice purchased from Nippon Clair, Co. were naturally mated together. Among the off spring mice, a colony of NOD mice with a high frequency of the spontaneous onset of insulin-dependent diabetes mellitus was established. Female NOD mice from the colony were used for the present experiment. […] Urine glucose was detected, using Uropaper (BM Test Glucose 5000, manufactured by Yamanouchi Pharmaceuticals, Co. Ltd.). Chemical agents were administered intraperitoneally, unless otherwise stated. […] (NAC)2 and (NAC-OMe)2 were at a single dose of 20 μg/animal; and NAC and GSHOEt were at a single dose of 2 μg/animal; and a single dose of lentinan was 0.1 mg/kg.

[5] = tested on: spontaneous onset of insulin-dependent diabetes mellitus; experiment: Onset of diabetes mellitus in NOD mice dosed at age 3 to 6 and 9 to 11 weeks (Example 24); format: in vivo; details: route not given, 0.1 mg/kg; 15 times in total; judged on week 22; saline 60
Source text: NOD mice purchased from Nippon Clair, Co. were naturally mated together. Among the off spring mice, a colony of NOD mice with a high frequency of the spontaneous onset of insulin-dependent diabetes mellitus was established. Female NOD mice from the colony were used for the present experiment. […] Urine glucose was detected, using Uropaper (BM Test Glucose 5000, manufactured by Yamanouchi Pharmaceuticals, Co. Ltd.). The onset was judged on week 22.

[6] = tested on: spontaneous onset of insulin-dependent diabetes mellitus; experiment: Onset of diabetes mellitus in NOD mice dosed at age 9 to 11 weeks (Example 25); format: in vivo; details: route not given, nine times, judged on week 22, saline 67
Source text: NOD mice purchased from Nippon Clair, Co. were naturally mated together. Among the off spring mice, a colony of NOD mice with a high frequency of the spontaneous onset of insulin-dependent diabetes mellitus was established. Female NOD mice from the colony were used for the present experiment. Chemical agents were orally or intraperitoneally administered to the NOD mice aged 9 to 11 weeks three times per week, in total nine times; and based on the test results of urine glucose, positive or negative, the onset of diabetes mellitus was followed once per week. Urine glucose was detected, using Uropaper (BM Test Glucose 5000, manufactured by Yamanouchi Pharmaceuticals, Co. Ltd.). The onset was judged on week 22; the doses were the same as in Example 24.

Lentinan [reference compound]
type of macrophages induced (GSH by monochlorobimane, ACAS) [1]: reductive macrophages were induced
IL-12 production ([2]; MΦ induced by intraperitoneal injection of the substance, stimulation with LPS and IFNγ): 1,312 pg/ml
IL-12 production of substance-induced MΦ, without DEM or IL-4 ([2]; baseline values of the DEM and IL-4 experiments): 828 pg/mL
Ratio in % of joint swelling in experimental groups to joint swelling in control group ([3]; Table 3, day 15 after adjuvant, every 3 days, single dose 1 mg/kg (NAC)2 and (NAC-OMe)2, 100 mg/kg NAC, 0.1 mg/kg lentinan): 52%
Ratio in % of joint swelling in experimental groups to joint swelling in control group ([3]; Table 4, intravenous): 50%
Frequency (%) of onset of diabetes mellitus, on age 18 weeks ([4]; saline 50): 10%
Frequency (%) of onset of diabetes mellitus, on age 22 weeks ([4]; saline 80): 20%
Frequency (%) of onset of diabetes mellitus [5]: 0%
Frequency (%) of onset of diabetes mellitus [6]: 50%
